# Test results reported in patent US6914045B2, “Glycopeptide antibiotics” (Wyeth Holdings Corporation, priority 2001, dated 2005).
# What was measured:
# Experiment in all cases: in vitro antibacterial evaluation, MIC by broth dilution
# Format in all cases: cell-based
# Enterococcus sp. = settings: broth dilution, 18 hours at 35° C.
# Summary of the method: (§1)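 MIC = lowest antibiotic concentration preventing visible growth; inoculum 5×10^5 CFU/mL; drug range 64-0.06 μg/mL; Muller-Hinton II […]; NCCLS M7-A2 guidance.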
# Escherichia coli = settings: 18 hours at 35° C.; for MIC Escherichia coli (ATCC 25922): strain ATCC 25922
# Summary of the method: as §1
# Staphylococcus sp. = settings: broth dilution, 18 hours at 35° C.
# Summary of the method: as §1
# Streptococcus sp. = settings: broth dilution, 18 hours at 35° C.
# Summary of the method: as §1
# [1] = Enterococcus faecalis (ATCC 29212)
# [2] = Enterococcus faecalis (GC 2242)
# [3] = Enterococcus faecalis (GC 4552)
# [4] = Enterococcus faecalis (GC 4553)
# [5] = Enterococcus faecalis (GC 4554)
# [6] = Streptococcus agalactiae (GC 4564)
# [7] = Streptococcus pneumoniae (GC 4565)
structure (smiles),measurement,setting,value
"N=C1NCC(C(O)C2NC(=O)C(Cc3ccc(OC4OC(CO)C(OC5OC6COC7(OC6C6OC8(OC56)C5CC6CC(C5)CC8C6)C5CC6CC(C5)CC7C6)C(O)C4O)cc3)NC(=O)C(CC3CCCCC3)NC(=O)CNC(=O)C(CO)NC(=O)C(C(O)C3CNC(=N)N3C3OC(CO)C(O)C(O)C3O)NC2=O)N1 (centres unmarked) [Example 106b, Cyclo[3-cyclohexylalanyl-O-[4-O-[2,3:4,6-di-O-(2-adamantylidene)hexopyranosyl]hexopyranosyl]tyrosyl-3-(2-iminoimidazolidin-4-yl)seryl-3-(3-hexopyranosyl-2-iminoimidazolidin-4-yl)-serylserylglycyl]]",MIC Enterococcus avium (GC 4558),Enterococcus sp.; Enterococcus avium (GC 4558),4 µg/mL
same,MIC Enterococcus faecalis (ATCC 29212),Enterococcus sp.; [1],8 µg/mL
same,MIC Enterococcus faecalis (GC 2242),Enterococcus sp.; [2],8 µg/mL
same,MIC Enterococcus faecalis (GC 2691),Enterococcus sp.; Enterococcus faecalis (GC 2691),16 µg/mL
same,MIC Enterococcus faecalis (GC 3059),Enterococcus sp.; Enterococcus faecalis (GC 3059),16 µg/mL
same,MIC Enterococcus faecalis (GC 4552),Enterococcus sp.; [3],8 µg/mL
same,MIC Enterococcus faecalis (GC 4553),Enterococcus sp.; [4],8 µg/mL
same,MIC Enterococcus faecalis (GC 4554),Enterococcus sp.; [5],16 µg/mL
same,MIC Enterococcus faecalis (GC 6189),Enterococcus sp.; Enterococcus faecalis (GC 6189),8 µg/mL
same,MIC Enterococcus faecium (GC 2243),Enterococcus sp.; Enterococcus faecium (GC 2243),8 µg/mL
same,MIC Enterococcus faecium (GC 4556),Enterococcus sp.; Enterococcus faecium (GC 4556),8 µg/mL
same,MIC Enterococcus faecium (GC 4557),Enterococcus sp.; Enterococcus faecium (GC 4557),4 µg/mL
same,MIC Enterococcus faecalis (ATCC 29212),Enterococcus sp.; strain ATCC 29212,8 µg/mL
same,MIC Enterococcus faecalis (GC 2242),Enterococcus sp.; strain GC 2242,8 µg/mL
same,MIC Enterococcus faecium (GC 2243),Enterococcus sp.; strain GC 2243,8 µg/mL
same,MIC Enterococcus faecalis (GC 2691),Enterococcus sp.; strain GC 2691,16 µg/mL
same,MIC Enterococcus faecalis (GC 3059),Enterococcus sp.; strain GC 3059,16 µg/mL
same,MIC Enterococcus faecalis (GC 4552),Enterococcus sp.; strain GC 4552,8 µg/mL
same,MIC Enterococcus faecalis (GC 4553),Enterococcus sp.; strain GC 4553,8 µg/mL
same,MIC Enterococcus faecalis (GC 4554),Enterococcus sp.; strain GC 4554,16 µg/mL
same,MIC Enterococcus faecium (GC 4556),Enterococcus sp.; strain GC 4556,8 µg/mL
same,MIC Enterococcus faecium (GC 4557),Enterococcus sp.; strain GC 4557,4 µg/mL
same,MIC Enterococcus avium (GC 4558),Enterococcus sp.; strain GC 4558,4 µg/mL
same,MIC Enterococcus faecalis (GC 6189),Enterococcus sp.; strain GC 6189,8 µg/mL
same,MIC Escherichia coli (ATCC 25922),Escherichia coli,64 µg/mL
same,MIC Escherichia coli (GC 4559),Escherichia coli; strain GC 4559,32 µg/mL
same,MIC Escherichia coli (GC 4560),Escherichia coli; strain GC 4560,8 µg/mL
same,MIC Coagulase Negative Staphylococcus (GC 4547),Staphylococcus sp.,8 µg/mL
same,MIC Coagulase Negative Staphylococcus (GC 4548),Staphylococcus sp.,4 µg/mL
same,MIC Coagulase Negative Staphylococcus (GC 4549),Staphylococcus sp.,4 µg/mL
same,MIC Coagulase Negative Staphylococcus (GC 4551),Staphylococcus sp.,8 µg/mL
same,MIC Staphylococcus aureus (ATCC 29213),Staphylococcus sp.,8 µg/mL
same,MIC Staphylococcus aureus (GC 1131),Staphylococcus sp.,8 µg/mL
same,MIC Staphylococcus aureus (GC 3051),Staphylococcus sp.,8 µg/mL
same,MIC Staphylococcus aureus (GC 3053),Staphylococcus sp.,8 µg/mL
same,MIC Staphylococcus aureus (GC 4541),Staphylococcus sp.,16 µg/mL
same,MIC Staphylococcus aureus (GC 4542),Staphylococcus sp.,8 µg/mL
same,MIC Staphylococcus aureus (GC 4544),Staphylococcus sp.,16 µg/mL
same,MIC Staphylococcus aureus (GC 4545),Staphylococcus sp.,8 µg/mL
same,MIC Staphylococcus aureus-SMITH (GC 4543),Staphylococcus sp.,8 µg/mL
same,MIC Staphylococcus haemolyticus (GC 4546),Staphylococcus sp.,4 µg/mL
same,MIC Staphylococcus haemolyticus (GC 4546),Staphylococcus sp.; strain GC 4546,4 µg/mL
same,MIC Coagulase Negative Staphylococcus (GC 4547),Staphylococcus sp.; strain GC 4547,8 µg/mL
same,MIC Coagulase Negative Staphylococcus (GC 4548),Staphylococcus sp.; strain GC 4548,4 µg/mL
same,MIC Coagulase Negative Staphylococcus (GC 4549),Staphylococcus sp.; strain GC 4549,4 µg/mL
same,MIC Coagulase Negative Staphylococcus (GC 4551),Staphylococcus sp.; strain GC 4551,8 µg/mL
same,MIC Staphylococcus aureus-SMITH (GC 4543),Staphylococcus sp.; strain SMITH GC 4543,8 µg/mL
same,MIC Staphylococcus aureus (ATCC 29213),Staphylococcus sp.; strain ATCC 29213,8 µg/mL
same,MIC Staphylococcus aureus (GC 1131),Staphylococcus sp.; strain GC 1131,8 µg/mL
same,MIC Staphylococcus aureus (GC 3051),Staphylococcus sp.; strain GC 3051,8 µg/mL
same,MIC Staphylococcus aureus (GC 3053),Staphylococcus sp.; strain GC 3053,8 µg/mL
same,MIC Staphylococcus aureus (GC 4541),Staphylococcus sp.; strain GC 4541,16 µg/mL
same,MIC Staphylococcus aureus (GC 4542),Staphylococcus sp.; strain GC 4542,8 µg/mL
same,MIC Staphylococcus aureus (GC 4544),Staphylococcus sp.; strain GC 4544,16 µg/mL
same,MIC Staphylococcus aureus (GC 4545),Staphylococcus sp.; strain GC 4545,8 µg/mL
same,MIC Streptococcus agalactiae (GC 4564),Streptococcus sp.; [6],0.5 µg/mL
same,MIC Streptococcus pneumoniae (ATCC 6301),Streptococcus sp.; Streptococcus pneumoniae (ATCC 6301),0.5 µg/mL
same,MIC Streptococcus pneumoniae (GC 1894),Streptococcus sp.; Streptococcus pneumoniae (GC 1894),<0.12 µg/mL
same,MIC Streptococcus pneumoniae (GC 4565),Streptococcus sp.; [7],0.5 µg/mL
same,MIC Streptococcus pyogenes (GC 4563),Streptococcus sp.; Streptococcus pyogenes (GC 4563),0.5 µg/mL
same,MIC Streptococcus pneumoniae (ATCC 6301),Streptococcus sp.; strain ATCC 6301,0.5 µg/mL
same,MIC Streptococcus pneumoniae (GC 1894),Streptococcus sp.; strain GC 1894,<0.12 µg/mL
same,MIC Streptococcus pyogenes (GC 4563),Streptococcus sp.; strain GC 4563,0.5 µg/mL
same,MIC Streptococcus agalactiae (GC 4564),Streptococcus sp.; strain GC 4564,0.5 µg/mL
same,MIC Streptococcus pneumoniae (GC 4565),Streptococcus sp.; strain GC 4565,0.5 µg/mL
CC(c1ccccc1)C1NC(=O)CNC(=O)C(CO)NC(=O)C(C(O)C2CNC(=N)N2C2OC(CO)C(O)C(O)C2O)NC(=O)C(C(O)C2CNC(=N)N2)NC(=O)C(Cc2ccc(OC3OC(CO)C(OC4OC(COC(=O)OCc5ccccc5)C(O)C(O)C4O)C(O)C3O)cc2)NC1=O (centres unmarked) [Example 101a],MIC Enterococcus avium (GC 4558),Enterococcus sp.; Enterococcus avium (GC 4558),16 µg/mL
same,MIC Enterococcus faecalis (ATCC 29212),Enterococcus sp.; [1],16 µg/mL
same,MIC Enterococcus faecalis (GC 2242),Enterococcus sp.; [2],8 µg/mL
same,MIC Enterococcus faecalis (GC 4552),Enterococcus sp.; [3],16 µg/mL
same,MIC Enterococcus faecalis (GC 4553),Enterococcus sp.; [4],16 µg/mL
same,MIC Enterococcus faecalis (GC 4554),Enterococcus sp.; [5],16 µg/mL
same,MIC Enterococcus faecium (GC 2243),Enterococcus sp.; Enterococcus faecium (GC 2243),16 µg/mL
same,MIC Enterococcus faecium (GC 4556),Enterococcus sp.; Enterococcus faecium (GC 4556),16 µg/mL
same,MIC Enterococcus faecium (GC 4557),Enterococcus sp.; Enterococcus faecium (GC 4557),2 µg/mL
same,MIC Enterococcus faecalis (ATCC 29212),Enterococcus sp.; strain ATCC 29212,16 µg/mL
same,MIC Enterococcus faecalis (GC 2242),Enterococcus sp.; strain GC 2242,8 µg/mL
same,MIC Enterococcus faecium (GC 2243),Enterococcus sp.; strain GC 2243,16 µg/mL
same,MIC Enterococcus faecalis (GC 4552),Enterococcus sp.; strain GC 4552,16 µg/mL
same,MIC Enterococcus faecalis (GC 4553),Enterococcus sp.; strain GC 4553,16 µg/mL
same,MIC Enterococcus faecalis (GC 4554),Enterococcus sp.; strain GC 4554,16 µg/mL
same,MIC Enterococcus faecium (GC 4556),Enterococcus sp.; strain GC 4556,16 µg/mL
same,MIC Enterococcus faecium (GC 4557),Enterococcus sp.; strain GC 4557,2 µg/mL
same,MIC Enterococcus avium (GC 4558),Enterococcus sp.; strain GC 4558,16 µg/mL
same,MIC Escherichia coli (ATCC 25922),Escherichia coli,64 µg/mL
same,MIC Coagulase Negative Staphylococcus (GC 4547),Staphylococcus sp.,1 µg/mL
same,MIC Coagulase Negative Staphylococcus (GC 4548),Staphylococcus sp.,1 µg/mL
same,MIC Coagulase Negative Staphylococcus (GC 4549),Staphylococcus sp.,1 µg/mL
same,MIC Coagulase Negative Staphylococcus (GC 4551),Staphylococcus sp.,2 µg/mL
same,MIC Coagulase Negative Staphylococcus (ID-3941),Staphylococcus sp.,1 µg/mL
same,MIC Staphylococcus aureus (ATCC 29213),Staphylococcus sp.,2 µg/mL
same,MIC Staphylococcus aureus (GC 1131),Staphylococcus sp.,4 µg/mL
same,MIC Staphylococcus aureus (GC 4541),Staphylococcus sp.,2 µg/mL
same,MIC Staphylococcus aureus (GC 4542),Staphylococcus sp.,4 µg/mL
same,MIC Staphylococcus aureus (GC 4544),Staphylococcus sp.,4 µg/mL
same,MIC Staphylococcus aureus (GC 4545),Staphylococcus sp.,4 µg/mL
same,MIC Staphylococcus aureus-SMITH (GC 4543),Staphylococcus sp.,8 µg/mL
same,MIC Staphylococcus haemolyticus (GC 4546),Staphylococcus sp.,1 µg/mL
same,MIC Staphylococcus haemolyticus (GC 4546),Staphylococcus sp.; strain GC 4546,1 µg/mL
same,MIC Coagulase Negative Staphylococcus (GC 4547),Staphylococcus sp.; strain GC 4547,1 µg/mL
same,MIC Coagulase Negative Staphylococcus (GC 4548),Staphylococcus sp.; strain GC 4548,1 µg/mL
same,MIC Coagulase Negative Staphylococcus (GC 4549),Staphylococcus sp.; strain GC 4549,1 µg/mL
same,MIC Coagulase Negative Staphylococcus (GC 4551),Staphylococcus sp.; strain GC 4551,2 µg/mL
same,MIC Coagulase Negative Staphylococcus (ID-3941),Staphylococcus sp.; strain ID-3941,1 µg/mL
same,MIC Staphylococcus aureus-SMITH (GC 4543),Staphylococcus sp.; strain SMITH GC 4543,8 µg/mL
same,MIC Staphylococcus aureus (ATCC 29213),Staphylococcus sp.; strain ATCC 29213,2 µg/mL
same,MIC Staphylococcus aureus (GC 1131),Staphylococcus sp.; strain GC 1131,4 µg/mL
same,MIC Staphylococcus aureus (GC 4541),Staphylococcus sp.; strain GC 4541,2 µg/mL
same,MIC Staphylococcus aureus (GC 4542),Staphylococcus sp.; strain GC 4542,4 µg/mL
same,MIC Staphylococcus aureus (GC 4544),Staphylococcus sp.; strain GC 4544,4 µg/mL
same,MIC Staphylococcus aureus (GC 4545),Staphylococcus sp.; strain GC 4545,4 µg/mL
same,MIC Streptococcus agalactiae (GC 4564),Streptococcus sp.; [6],1 µg/mL
same,MIC Streptococcus pneumoniae (GC 4565),Streptococcus sp.; [7],<0.5 µg/mL
same,MIC Streptococcus pyogenes (ID-3187),Streptococcus sp.; Streptococcus pyogenes (ID-3187),1 µg/mL
same,MIC Streptococcus agalactiae (GC 4564),Streptococcus sp.; strain GC 4564,1 µg/mL
same,MIC Streptococcus pneumoniae (GC 4565),Streptococcus sp.; strain GC 4565,<0.5 µg/mL
same,MIC Streptococcus pyogenes (ID-3187),Streptococcus sp.; strain ID-3187,1 µg/mL
